Measured values taken from patent US7812035B2, “4-substituted piperidines, and methods of use thereof” (Sepracor Inc., priority 2001, dated 2010).
Read-outs that look alike come from different tables or passages of the source.

How the values were obtained:
Type in all cases: cell-based
[1] = biological target: serotonin transporter (UniProt P31645); test: 5-HT uptake inhibition (monoamine transporter antagonism, methods of Gu et al); conditions: 1 μM compound
[2] = biological target: norepinephrine transporter (Homo sapiens, UniProt P23975); test: NE uptake inhibition (monoamine transporter antagonism, methods of Galli et al); conditions: read-out: NE uptake (% inhibition @1 μM)
[3] = test system: dopamine transporter; test: DA uptake inhibition (monoamine transporter antagonism, methods of Gu et al); conditions: 1 μM compound

Chain of norepinephrine transporter (P23975 whole entry): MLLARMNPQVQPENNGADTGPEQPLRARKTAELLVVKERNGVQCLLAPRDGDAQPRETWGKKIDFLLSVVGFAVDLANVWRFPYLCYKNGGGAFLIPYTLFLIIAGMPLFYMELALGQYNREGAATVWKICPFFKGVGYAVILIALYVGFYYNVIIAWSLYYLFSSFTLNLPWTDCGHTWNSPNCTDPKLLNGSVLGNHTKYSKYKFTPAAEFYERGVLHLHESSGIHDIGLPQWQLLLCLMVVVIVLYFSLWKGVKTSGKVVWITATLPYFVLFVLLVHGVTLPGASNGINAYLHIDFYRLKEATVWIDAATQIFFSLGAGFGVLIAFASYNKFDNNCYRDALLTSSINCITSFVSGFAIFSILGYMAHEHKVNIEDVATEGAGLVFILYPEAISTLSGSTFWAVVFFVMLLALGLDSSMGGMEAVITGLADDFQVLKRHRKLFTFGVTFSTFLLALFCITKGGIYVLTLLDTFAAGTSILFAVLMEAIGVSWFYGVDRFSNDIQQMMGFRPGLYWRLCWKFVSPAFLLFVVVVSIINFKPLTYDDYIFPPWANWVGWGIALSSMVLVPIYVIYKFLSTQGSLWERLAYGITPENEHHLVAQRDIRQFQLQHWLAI

inhibition at 1 µM ([2]; 1 μM compound)	Compound	5-HT uptake (% inhibition @1 μM) [1]	inhibition at 1 µM [2]	DA uptake (% inhibition @1 μM) [3]
–	OC1CCN(CC2(c3ccc(Cl)cc3)CCC2)CC1 [Compound 2, 1-[1-(4-Chloro-phenyl)-cyclobutylmethyl]-piperidin-4-ol]	36%	65%	88%
97%	FC(F)(F)c1ccc(COCC2CCN(CC3(c4ccc(Cl)cc4)CCC3)CC2)cc1 [Compound 11]	87%	–	97%
–	FC(F)(F)c1ccc(COC2CCN(CC3(c4ccc(Cl)cc4)CCC3)CC2)cc1 [Compound 6, [1-(4-chloro-phenyl)-cyclobutylmethyl]-4-(4-trifluoromethyl-benzyloxy)-piperidine]	9%	78%	85%
–	FC(F)(F)c1ccc(OC2CCN(CC3(c4ccc(Cl)cc4)CCC3)CC2)cc1 [Compound 8, 1-[1-(4-chloro-phenyl)-cyclobutylmethyl]-4-(4-trifluoromethal-phenoxy)-piperidine]	56%	38%	25%
85%	FC(F)(F)c1cc(COC2CCN(CC3(c4ccc(Cl)cc4)CCC3)CC2)cc(C(F)(F)F)c1 [Compound 5]	14%	–	61%
–	FC(F)(F)c1ccc(OCC2CCN(CC3(c4ccc(Cl)cc4)CCC3)CC2)cc1 [Compound 13, 1-[1-(4-Chloro-Phenyl)-Cyclobutylmethyl]-4-(4-Trifluoromethyl-Phenoxymethyl)-Piperidine]	83%	97%	94%
–	OCC1CCN(CC2(c3ccc(Cl)cc3)CCC2)CC1 [Compound 10, {1-[1-(4-chloro-phenyl)-cyclobuylmethyl]-piperidin-4-yl}-methanol]	21%	62%	70%
